Laboratory results published in ChEMBL document CHEMBL1148076, “Cucurbitacins: differential cytotoxicity, dereplication and first isolation from Gonystylus keithii” (1994).

Columns and labels:
Format in all cases: functional
[1] = system: SF-539; assay: Growth inhibition of human SF539 cells
[2] = system: CCRF-CEM; assay: Growth inhibition of human CCRF-CEM cells
[3] = system: HCC 2998; assay: Growth inhibition of human HCC2998 cells
[4] = system: NCI-H23; assay: Growth inhibition of human NCI-H23 cells
[5] = system: TK-10; assay: Growth inhibition of human TK10 cells
[6] = system: A549; assay: Growth inhibition of human A549 cells
[7] = system: RXF 393; assay: Growth inhibition of human RXF393 cells
[8] = system: MCF7; assay: Growth inhibition of human MCF7 cells
[9] = Growth inhibition of human Hs 578T cells
[10] = system: SNB-75; assay: Growth inhibition of human SNB75 cells
[11] = system: HOP-92; assay: Growth inhibition of human HOP92 cells
[12] = system: MDA-N; assay: Growth inhibition of human MDA-N cells
[13] = system: UO-31; assay: Growth inhibition of human UO31 cells
[14] = system: OVCAR-4; assay: Growth inhibition of human OVCAR4 cells
[15] = system: A498; assay: Growth inhibition of human A498 cells
[16] = system: T47D; assay: Growth inhibition of human T47D cells
[17] = system: HCT-15; assay: Growth inhibition of human HCT15 cells
[18] = system: SK-MEL-2; assay: Growth inhibition of human SK-MEL-2 cells
[19] = system: MDA-MB-435; assay: Growth inhibition of human MDA-MB-435 cells
[20] = system: SF-295; assay: Growth inhibition of human SF295 cells
[21] = system: SN12C; assay: Growth inhibition of human SN12C cells
[22] = system: MDA-MB-231; assay: Growth inhibition of human MDA-MB-231 cells
[23] = system: NCI-H322M; assay: Growth inhibition of human NCI-H322M cells
[24] = system: KM12; assay: Growth inhibition of human KM12 cells
[25] = system: EKVX; assay: Growth inhibition of human EKVX cells
[26] = system: UACC-62; assay: Growth inhibition of human UACC62 cells
[27] = system: SF-268; assay: Growth inhibition of human SF268 cells
[28] = system: K562; assay: Growth inhibition of human K562 cells
[29] = system: NCI-H226; assay: Growth inhibition of human NCI-H226 cells
[30] = system: SW-620; assay: Growth inhibition of human SW620 cells
[31] = read-out: pLC50 (the source's name) (converted)

## CC(=O)OC(C)(C)/C=C/C(=O)[C@](C)(O)[C@H]1[C@H](O)C[C@@]2(C)[C@@H]3CC=C4[C@@H](C=C(O)C(=O)C4(C)C)[C@]3(C)C(=O)C[C@]12C [CUCURBITACIN E]
[1]; [31]
  CC50: 331 nM
[1]; read-out: pTGI (converted)
  TGI: 18.2 nM
[2]; [31]
  CC50: 34700 nM
[2]; read-out: pTGI (converted)
  TGI: 6310 nM
[3]; [31]
  CC50: 10000 nM
[3]; read-out: pTGI (converted)
  TGI: 912 nM
[4]; [31]
  CC50: 10000 nM
[4]; read-out: pTGI (converted)
  TGI: 2190 nM
[5]; [31]
  CC50: 3310 nM
[5]; read-out: pTGI (converted)
  TGI: 129 nM
[6]; [31]
  CC50: 33900 nM
[6]; read-out: pTGI (converted)
  TGI: 5010 nM
[7]; [31]
  CC50: 347 nM
[7]; read-out: pTGI (converted)
  TGI: 49 nM
[8]; [31]
  CC50: 8910 nM
[8]; read-out: pTGI (converted)
  TGI: 3240 nM
[9]; [31]
  CC50: 34700 nM
[9]; read-out: pTGI (converted)
  TGI: 89.1 nM
[10]; [31]
  CC50: 17000 nM
[10]; read-out: pTGI (converted)
  TGI: 603 nM
[11]; [31]
  CC50: 191 nM
[11]; read-out: pTGI (converted)
  TGI: 63.1 nM
[12]; [31]
  CC50: 14100 nM
[12]; read-out: pTGI (converted)
  TGI: 1910 nM
[13]; [31]
  CC50: 2290 nM
[13]; read-out: pTGI (converted)
  TGI: 77.6 nM
[14]; [31]
  CC50: 10000 nM
[14]; read-out: pTGI (converted)
  TGI: 417 nM
[15]; [31]
  CC50: 63.1 nM
[15]; read-out: pTGI (converted)
  TGI: 25.7 nM
[16]; [31]
  CC50: 12900 nM
[16]; read-out: pTGI (converted)
  TGI: 2000 nM
[17]; [31]
  CC50: 11000 nM
[17]; read-out: pTGI (converted)
  TGI: 537 nM
[18]; [31]
  CC50: 417 nM
[18]; read-out: pTGI (converted)
  TGI: 25.7 nM
[19]; [31]
  CC50: 22900 nM
[19]; read-out: pTGI (converted)
  TGI: 2090 nM
[20]; [31]
  CC50: 5620 nM
[20]; read-out: pTGI (converted)
  TGI: 81.3 nM
[21]; [31]
  CC50: 12900 nM
[21]; read-out: pTGI (converted)
  TGI: 1410 nM
[22]; [31]
  CC50: 891 nM
[22]; read-out: pTGI (converted)
  TGI: 53.7 nM
[23]; [31]
  CC50: 12000 nM
[23]; read-out: pTGI (converted)
  TGI: 3020 nM
[24]; [31]
  CC50: 15100 nM
[24]; read-out: pTGI (converted)
  TGI: 4790 nM
[25]; [31]
  CC50: 15800 nM
[25]; read-out: pTGI (converted)
  TGI: 1100 nM
[26]; [31]
  CC50: 1910 nM
[26]; read-out: pTGI (converted)
  TGI: 347 nM
[27]; [31]
  CC50: 12900 nM
[27]; read-out: pTGI (converted)
  TGI: 100 nM
[28]; [31]
  CC50: 32400 nM
[28]; read-out: pTGI (converted)
  TGI: 15100 nM
[29]; [31]
  CC50: 9770 nM
[29]; read-out: pTGI (converted)
  TGI: 91.2 nM
[30]; [31]
  CC50: 19100 nM
[30]; read-out: pTGI (converted)
  TGI: 2090 nM
